13 compounds from ChEMBL document CHEMBL1132082, “Nonsteroidal androgen receptor agonists based on 4-(trifluoromethyl)-2H-pyrano[3,2-g]quinolin-2-one” (Bioorg Med Chem Lett, 1999) can be followed below.

For orientation: IC50 means the point on the concentration scale where inhibition reaches its midpoint. A lower IC50 goes with inhibition by little substance. For orientation: EC50 means the concentration needed to bring the measured effect to its halfway point. Lower therefore signals greater potency.

The target of assay [1] is T1, Estrogen receptor (Homo sapiens, UniProt Q92731+P03372). Put plainly: In vitro antagonistic activity against human estrogen receptor (hER); not active. Type of assay: functional.
In assay [2] the target is T1, Estrogen receptor. Description: (§1) In vitro antagonistic activity against human estrogen receptor (hER). Type of assay: functional.
Assay [3] addresses T2, Glucocorticoid receptor (Homo sapiens, UniProt P04150).
T2 sequence (P04150 whole entry): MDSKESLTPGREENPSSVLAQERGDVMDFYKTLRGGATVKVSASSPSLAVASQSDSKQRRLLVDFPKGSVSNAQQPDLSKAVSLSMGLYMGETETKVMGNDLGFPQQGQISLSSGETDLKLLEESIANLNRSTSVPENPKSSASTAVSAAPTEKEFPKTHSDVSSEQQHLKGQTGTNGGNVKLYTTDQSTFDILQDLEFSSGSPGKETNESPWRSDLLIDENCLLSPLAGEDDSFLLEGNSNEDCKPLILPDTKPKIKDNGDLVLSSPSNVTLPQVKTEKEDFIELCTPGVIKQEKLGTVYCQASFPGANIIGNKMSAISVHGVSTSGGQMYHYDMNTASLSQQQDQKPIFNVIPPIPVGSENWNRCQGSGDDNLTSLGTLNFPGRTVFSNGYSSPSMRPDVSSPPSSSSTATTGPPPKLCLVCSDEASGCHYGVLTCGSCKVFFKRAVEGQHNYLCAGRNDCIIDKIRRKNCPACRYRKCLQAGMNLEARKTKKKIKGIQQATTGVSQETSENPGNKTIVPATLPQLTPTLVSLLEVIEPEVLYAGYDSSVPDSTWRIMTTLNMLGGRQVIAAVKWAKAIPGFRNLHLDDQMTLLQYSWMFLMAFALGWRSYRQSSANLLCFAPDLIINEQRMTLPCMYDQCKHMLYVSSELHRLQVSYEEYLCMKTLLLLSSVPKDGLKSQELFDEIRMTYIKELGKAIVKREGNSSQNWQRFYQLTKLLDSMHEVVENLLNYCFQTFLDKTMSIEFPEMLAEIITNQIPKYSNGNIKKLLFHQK
Put plainly: In vitro antagonistic activity against human glucocorticoid receptor (hGR). Type of assay: functional.

For assay [4], the target named is T3, Mineralocorticoid receptor (Homo sapiens, UniProt P08235).
T3 sequence (P08235 whole entry): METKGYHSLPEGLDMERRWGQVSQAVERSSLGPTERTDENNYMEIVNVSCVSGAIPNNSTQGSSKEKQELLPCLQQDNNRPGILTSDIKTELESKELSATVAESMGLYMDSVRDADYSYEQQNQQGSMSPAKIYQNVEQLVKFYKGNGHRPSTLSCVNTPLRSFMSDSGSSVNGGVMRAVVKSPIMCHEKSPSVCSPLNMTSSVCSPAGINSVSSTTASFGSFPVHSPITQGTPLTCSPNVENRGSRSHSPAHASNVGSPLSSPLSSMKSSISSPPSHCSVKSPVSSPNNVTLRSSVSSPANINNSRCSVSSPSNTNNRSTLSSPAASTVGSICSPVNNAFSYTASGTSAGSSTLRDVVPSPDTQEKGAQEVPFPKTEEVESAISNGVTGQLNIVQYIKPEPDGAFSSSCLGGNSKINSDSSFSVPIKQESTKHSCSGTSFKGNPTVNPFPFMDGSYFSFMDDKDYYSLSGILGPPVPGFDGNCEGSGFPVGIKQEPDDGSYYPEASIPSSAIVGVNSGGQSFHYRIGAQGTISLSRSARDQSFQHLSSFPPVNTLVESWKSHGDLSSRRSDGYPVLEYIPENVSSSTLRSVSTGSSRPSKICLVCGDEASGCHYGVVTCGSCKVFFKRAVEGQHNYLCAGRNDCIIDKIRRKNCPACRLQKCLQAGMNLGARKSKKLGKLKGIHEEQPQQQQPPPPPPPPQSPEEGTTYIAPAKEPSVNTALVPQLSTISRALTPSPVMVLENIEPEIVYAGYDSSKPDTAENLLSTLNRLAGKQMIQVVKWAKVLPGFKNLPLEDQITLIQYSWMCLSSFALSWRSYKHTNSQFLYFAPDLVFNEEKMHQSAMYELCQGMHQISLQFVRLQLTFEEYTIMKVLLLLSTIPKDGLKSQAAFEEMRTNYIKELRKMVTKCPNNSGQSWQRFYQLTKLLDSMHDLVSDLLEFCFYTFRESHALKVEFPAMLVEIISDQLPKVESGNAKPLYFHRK
Description: (§2) In vitro antagonistic activity against human mineralocorticoid receptor (hMR). Format: functional.

Assay [5] deals with T4, Mineralocorticoid receptor (Homo sapiens) (UniProt P08235).
T4 sequence (whole entry): T3 sequence (P08235 whole entry)
The assay is described as §2. Format: functional.

In assay [6] the target is T5, Progesterone receptor (Homo sapiens) (UniProt P06401).
T5 sequence (whole entry): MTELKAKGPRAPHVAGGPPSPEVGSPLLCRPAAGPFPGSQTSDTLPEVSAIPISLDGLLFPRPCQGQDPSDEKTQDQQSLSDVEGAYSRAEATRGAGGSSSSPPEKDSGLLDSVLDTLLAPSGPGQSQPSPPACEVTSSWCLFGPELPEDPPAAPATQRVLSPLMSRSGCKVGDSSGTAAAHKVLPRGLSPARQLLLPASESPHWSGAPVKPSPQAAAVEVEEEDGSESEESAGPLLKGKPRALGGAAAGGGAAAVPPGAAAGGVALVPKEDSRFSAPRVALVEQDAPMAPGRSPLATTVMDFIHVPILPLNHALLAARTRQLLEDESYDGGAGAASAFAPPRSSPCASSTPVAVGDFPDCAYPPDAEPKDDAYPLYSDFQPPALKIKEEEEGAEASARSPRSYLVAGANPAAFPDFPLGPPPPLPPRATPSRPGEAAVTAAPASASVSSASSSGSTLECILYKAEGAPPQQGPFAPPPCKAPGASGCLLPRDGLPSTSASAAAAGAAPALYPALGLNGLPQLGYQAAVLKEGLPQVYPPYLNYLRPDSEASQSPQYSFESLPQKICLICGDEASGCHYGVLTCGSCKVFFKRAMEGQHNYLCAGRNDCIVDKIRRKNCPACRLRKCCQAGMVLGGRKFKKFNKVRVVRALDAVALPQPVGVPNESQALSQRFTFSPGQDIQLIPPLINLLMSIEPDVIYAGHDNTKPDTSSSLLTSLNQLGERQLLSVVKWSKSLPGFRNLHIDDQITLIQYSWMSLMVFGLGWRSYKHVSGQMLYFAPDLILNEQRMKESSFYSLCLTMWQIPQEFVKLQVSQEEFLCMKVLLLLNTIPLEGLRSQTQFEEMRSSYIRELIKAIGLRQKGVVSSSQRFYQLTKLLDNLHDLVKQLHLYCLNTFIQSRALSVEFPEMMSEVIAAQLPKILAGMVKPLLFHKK
Put plainly: (§3) In vitro antagonistic activity against human progesterone receptor (hPR). Format: functional.

Another assay has as its target T6, Progesterone receptor (Homo sapiens, UniProt P06401).
T6 sequence (P06401 whole entry): T5 sequence (whole entry)
The assay is described as §3. Type of assay: functional.

Assay [7] has as its target T7, Androgen receptor (Homo sapiens, UniProt P10275).
T7 sequence (P10275 whole entry): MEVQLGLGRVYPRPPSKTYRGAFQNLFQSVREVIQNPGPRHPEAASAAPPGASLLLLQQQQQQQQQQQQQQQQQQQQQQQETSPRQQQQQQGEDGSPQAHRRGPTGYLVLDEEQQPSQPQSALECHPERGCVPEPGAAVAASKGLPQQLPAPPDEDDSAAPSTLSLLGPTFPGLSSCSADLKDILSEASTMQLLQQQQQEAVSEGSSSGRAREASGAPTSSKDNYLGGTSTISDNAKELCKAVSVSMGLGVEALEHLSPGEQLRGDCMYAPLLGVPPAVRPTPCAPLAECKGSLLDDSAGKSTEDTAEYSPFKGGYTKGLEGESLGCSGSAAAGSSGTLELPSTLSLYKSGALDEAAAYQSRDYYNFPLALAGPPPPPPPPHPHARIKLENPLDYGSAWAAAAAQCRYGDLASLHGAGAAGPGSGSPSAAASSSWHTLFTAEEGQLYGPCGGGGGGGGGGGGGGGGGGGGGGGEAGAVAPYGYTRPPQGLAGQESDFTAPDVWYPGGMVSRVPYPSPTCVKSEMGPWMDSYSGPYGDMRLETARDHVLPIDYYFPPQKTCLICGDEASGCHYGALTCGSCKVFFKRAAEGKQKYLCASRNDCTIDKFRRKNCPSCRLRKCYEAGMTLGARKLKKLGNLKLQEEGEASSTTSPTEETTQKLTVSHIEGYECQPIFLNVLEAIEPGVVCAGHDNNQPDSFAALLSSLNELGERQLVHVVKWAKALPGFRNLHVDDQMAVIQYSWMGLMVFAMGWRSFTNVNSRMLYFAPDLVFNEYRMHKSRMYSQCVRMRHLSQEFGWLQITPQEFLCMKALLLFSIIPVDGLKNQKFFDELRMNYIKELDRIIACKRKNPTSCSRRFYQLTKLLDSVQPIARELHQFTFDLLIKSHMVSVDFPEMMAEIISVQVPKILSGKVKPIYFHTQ
Description: In vitro agonistic activity against human androgen receptor using cotransfection assay in CV-1 cells.

The target in assay [8] is T7, Androgen receptor. This is another data set of the same source.
In assay [9] the target is T7, Androgen receptor. Put plainly: biochemical.
Description: In vitro binding affinity at human androgen receptor transfected into COS cells.
Assay [10] has as its target T7, Androgen receptor. The source holds these as a separate data set.
Assay [11] deals with T1, Estrogen receptor. The description is as §1. Format: functional. This is another data set of the same source.
In assay [12] the target is T1, Estrogen receptor. Put plainly: In vitro antagonistic activity against human estrogen receptor (hER); Not active. Type of assay: functional.
The target of assay [13] is T2, Glucocorticoid receptor. Put plainly: In vitro antagonistic activity against human glucocorticoid receptor (hGR); not active. Type of assay: functional.
Assay [14] has as its target T3, Mineralocorticoid receptor. Description: In vitro antagonistic activity against human mineralocorticoid receptor (hMR); not active. Format: functional.

In the case of `CC[C@@H]1c2cc3c(C(F)(F)F)cc(=O)oc3cc2NC[C@H]1C` (relative stereo), the IC50 is > 10000 nM at Estrogen receptor [1]; 2300 nM against Glucocorticoid receptor [3]; 3000 nM in assay [4]; 130 nM on Progesterone receptor; > 10 nM against Androgen receptor [8]; 0.3 nM against Androgen receptor [9]. The Efficacy at Estrogen receptor [2] was < 20%; in assay [5], 60%; in assay [6], 98%. On Androgen receptor [7], this compound showed an EC50 of 1 nM.

Compound `CC[C@H]1CNc2cc3oc(=O)cc(C(F)(F)F)c3cc2[C@@H]1CC` (stereo in doubt) came in with an EC50 at Androgen receptor [7] of 5 nM. In addition, the IC50 at Androgen receptor [8] was > 10 nM.

Regarding `CC[C@H]1C[C@@H](C)Nc2cc3oc(=O)cc(C(F)(F)F)c3cc21` (relative stereo), the EC50 is 16 nM at Androgen receptor [10] and 27 nM on Androgen receptor [7]. Moreover, the IC50 at Androgen receptor [9] is 12 nM.

As to `CC[C@H]1c2cc3c(C(F)(F)F)cc(=O)oc3cc2NC[C@H]1C` (relative stereo), the IC50 at Estrogen receptor [11] was 3100 nM; at Glucocorticoid receptor [3], 340 nM; in assay [4], 2800 nM; at Progesterone receptor it was 130 nM; on Androgen receptor [8] it was > 10 nM; at Androgen receptor [9] it was 2 nM. The Efficacy at Estrogen receptor [2] was found to be 33%; in [5], 39%; in assay [6], 87%. At Androgen receptor [7], this compound gave an EC50 of 7 nM.

On Androgen receptor [7], `CCC1CCc2cc3c(C(F)(F)F)cc(=O)oc3cc2N1` (centres undefined) had an EC50 of 7 nM. The results for the IC50 on Androgen receptor [8] and against Androgen receptor [9] were > 10 nM and 1 nM, respectively.

In turn, `CCC1CC(C)c2cc3c(C(F)(F)F)cc(=O)oc3cc2N1` (cis isomer) registered an EC50 on Androgen receptor [7] of 8 nM. Further, the IC50 at Androgen receptor [8] is > 10 nM; against Androgen receptor [9], 11 nM.

For `CC[C@@H]1CNc2cc3oc(=O)cc(C(F)(F)F)c3cc2[C@H]1CC` (stereo in doubt), the EC50 on Androgen receptor [10] turned out to be 1400 nM; on Androgen receptor [7], 5 nM. For the same compound, the IC50 on Estrogen receptor [12] was > 10000 nM; at Glucocorticoid receptor [3], 2800 nM; in [4] it was 1900 nM; against Progesterone receptor it was 65 nM. Besides, the Efficacy is < 20% on Estrogen receptor [2], 50% in [5] and 98% in [6].

As for `O=c1cc(C(F)(F)F)c2cc3c(cc2o1)NCCC3`, the midpoint of the response on Androgen receptor [7], the EC50, lay at 19 nM. The figures for the IC50 against Androgen receptor [8] and at Androgen receptor [9] were > 10 nM and 1 nM, respectively.

`CC1(C)CCc2cc3c(C(F)(F)F)cc(=O)oc3cc2N1`: the IC50 is > 10000 nM at Estrogen receptor [1]; > 10000 nM at Glucocorticoid receptor [13]; 1500 nM in assay [4]; 570 nM against Progesterone receptor; > 10 nM on Androgen receptor [8]; 1 nM against Androgen receptor [9]. In addition, the Efficacy is < 20% on Estrogen receptor [2], 50% in [5] and 84% in assay [6]. Further, the midpoint of the response at Androgen receptor [7], the EC50, lay at 9 nM.

On to `CC1=CC(C)(C)Nc2cc3oc(=O)cc(C(F)(F)F)c3cc21`, for which the IC50 against Estrogen receptor [1] was > 10000 nM; on Glucocorticoid receptor [13], > 10000 nM; in assay [14] it was > 10000 nM; against Progesterone receptor it was 100 nM. The values for the Efficacy (at Estrogen receptor [2]; in [5]; in assay [6]) were < 20%, < 20% and 79%, respectively.

Turning to `CCC1CCN(C)c2cc3oc(=O)cc(C(F)(F)F)c3cc21` (centres undefined), the EC50 on Androgen receptor [7] was found to be 209 nM. The IC50 against Androgen receptor [8] is > 10 nM; on Androgen receptor [9] it was 276 nM.

Consider `CCC1CC(CC)c2cc3c(C(F)(F)F)cc(=O)oc3cc2N1` (trans isomer), for which the response on Androgen receptor [7] was half-maximal at 26 nM (EC50). The IC50 was > 10 nM on Androgen receptor [8] and 7 nM against Androgen receptor [9].

For the compound `O=c1cc(C(F)(F)F)c2cc3c(cc2o1)NCCC3C(F)(F)C(F)(F)F` (centres undefined), the EC50 on Androgen receptor [7] was 13 nM. Further, the figures for the IC50 against Androgen receptor [8] and against Androgen receptor [9] were > 10 nM and 5 nM, respectively.
